How the values were obtained:
[1] = target: GABAA receptor with the α1β2γ2 subunit composition (Homo sapiens, UniProt P14867+P18507+P47870); test: FLIPR assay on CHO cells stably expressing GABAA receptors; format: cell-based; settings: for % activation at single concentration: 20 μM compound, 200 μM GABA = 100%
Protocol: Chinese hamster ovary (CHO) cells stably expressing the GABAA receptor with the α1β2γ2 subunit composition were passaged following an established protocol.[15],[16] The Chinese hamster ovary (CHO) cell line stably expressing the α1β2γ2 GABAA receptor subtype was cloned by B’SYS. Cells were cultured in a DMEM F-12 nutrient mixture supplemented with 10% FBS and 1% penicillin/streptomycin, under antibiotic pressure with 200 μg/mL of hygromycin B, 5 μg/mL of puromycin, and 100 μg/mL of zeocin. Cells were incubated in humidified air at 37 °C and 5% CO2, until 80–90% cell confluency. The passage numbers used in this study were from 10 to 30. Briefly, cells of ca. 80–90% confluency were seeded in a 96-well black-walled plate at a density of 60 000 cells/well in 100 μL of culture medium. The plate was incubated in humidified air at 37 °C and 5% CO2 for 24 h to allow cells to adhere. Then, 100 μL of FLIPR red dye solution (10.4 mL of assay buffer and one vial of red FLIPR assay reagent) was added to each well. The plate was further incubated for 30 min to allow the dye to penetrate into the cell membrane (assay plate). During the incubation time, a compound plate (clear 96-well plate) with controls, extracts, microfractions, compounds, and blanks was prepared (200 μL/well). Test solutions of extracts, microfractions, and compounds were prepared in buffer (consisting of 10% HBSS and 2% HEPES in sterilized H2O) and DMSO.
For the extract library screening, 2 μL of a 10 mg/mL DMSO stock solution of the extracts was added to 198 μL of buffer and transferred into the compound plate. The final test concentration for extracts was 20 μg/mL, with a final DMSO concentration in the assay of 0.1%. For extracts tested, active (>35% potentiation) serial dilutions were prepared from the stock solution to obtain final test concentrations of 0.16, 0.31, 0.63, 1.25, 2.50, 5.00, 10.00, and 20.00 μg/mL.
To test the pure compounds, stock solutions of 20 mM in DMSO were prepared. Compounds were assayed at a final concentration range of 0.16 to 20.00 μM (8× dilution series) or alternatively from 0.01 to 20.00 μM (12× dilution series). Aliquots of 200 μL from each dilution were transferred into wells of the compound plate and tested.
A series of controls was included in each assay. GABA at 200 μM was used to represent 100% activation of the receptor, while GABA at 2 μM represented the minimum activation (EC10). The positive control was diazepam at 20 μM in the presence of GABA at 2 μM, and buffer with 0.1% DMSO was used as a blank. GABA solutions (2 and 200 μM) were prepared from a 100 mM stock solution. In order to achieve a final test concentration of 20 μM diazepam in the assay plate, a 100 μM working solution was prepared from a stock solution (1 mg/mL in MeOH).
All test solutions were placed in the appropriate position in the compound plate (200 μL). Right after the final incubation period of the assay plate, the compound and assay plates were placed into a FlexStation 3 (Molecular Devices). The FlexStation parameters used in this study were as previously published.[14] Fluorescence was recorded for 500 s. For the first 25 s, the background fluorescence of the assay plate was measured (background signal). At 25 s, 50 μL of the test solutions (dilutions from compounds, extracts, microfractions, diazepam, and blanks) was transferred from the compound plate into the assay plate. The fluorescence was then recorded until 295 s. At 295 s, 25 μL of the GABA solutions (final concentration of 2 or 200 μM) was transferred into each well of the assay plate, and fluorescence was recorded until 500 s. The change in fluorescence intensity measured between 270 and 330 s was used for the calculation of percentage activation.

[2] = target: T1, GABAA receptors α1β2γ2S (Homo sapiens, UniProt P14867+P18507+P47870); test: Two-microelectrode voltage clamp assay with Xenopus laevis oocytes (α1β2γ2S); format: cell-based
T1 construct: expressed in transfected cells; host or cells: Xenopus laevis oocytes, cRNA injection
T1 sequence (P18507 40-467 isoform P18507-1 limits assumed, one chain of several): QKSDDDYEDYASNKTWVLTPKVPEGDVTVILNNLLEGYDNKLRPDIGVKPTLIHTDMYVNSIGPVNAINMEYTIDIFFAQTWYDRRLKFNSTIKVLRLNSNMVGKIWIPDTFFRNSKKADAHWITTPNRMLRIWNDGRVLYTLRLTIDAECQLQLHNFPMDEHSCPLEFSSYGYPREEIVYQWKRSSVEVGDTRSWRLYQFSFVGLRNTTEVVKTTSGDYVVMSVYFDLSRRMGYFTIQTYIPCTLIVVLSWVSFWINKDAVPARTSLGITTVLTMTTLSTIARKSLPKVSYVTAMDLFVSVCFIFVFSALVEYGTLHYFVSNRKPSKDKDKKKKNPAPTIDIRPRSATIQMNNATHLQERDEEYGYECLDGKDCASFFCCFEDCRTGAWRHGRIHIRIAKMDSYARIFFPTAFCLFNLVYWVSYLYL
Protocol: (§1) Recombinant GABAA receptors (α1β2γ2s and α1β2) were expressed in X. laevis oocytes by cRNA injection, as previously described.[37] Two-microelectrode voltage clamp measurements were performed between days 1 and 5 after injection of cRNA of the respective subunits, using a TURBO TEC 03X amplifier (npi Electronic) at a holding potential of −70 mV and pCLAMP 10 data acquisition software (Molecular Devices). The bath solution contained 90 mM NaCl, 1 mM KCl, 1 mM MgCl2, 1 mM CaCl2, and 5 mM HEPES (pH 7.4), and the electrode filling solution contained 2 M KCl. Test solutions (100 μL) were applied to the oocytes at a speed of 300 μL/sec by means of the ScreeningTool (npi electronic) automated fast perfusion system. GABA EC3–7 was determined through a concentration–response experiment with GABA. A stock solution of compound 8 (100 mM) in DMSO was diluted with a bath solution containing GABA EC3–7 to obtain appropriate working solutions according to a validated protocol. Enhancement of the IGABA was defined as (I(GABA+Comp)/IGABA) – 1, where I(GABA+Comp) is the current response in the presence of a given compound, and IGABA is the control of the GABA-induced chloride current. Emax reflects the maximal IGABA enhancement. Concentration–response curves were generated, and the data were fitted by nonlinear regression analysis using Origin Software (OriginLab Corporation, USA) and are given as the means ± SEM of at least three oocytes from ≥2 batches. Diazepam (Sigma) and flumazenil (Sigma-Aldrich) were used as positive controls at 2 μM.

[3] = target: T2, GABAA receptors α1β2 (Homo sapiens, UniProt P14867+P47870); test: Two-microelectrode voltage clamp assay with Xenopus laevis oocytes (α1β2); format: cell-based; settings: α1β2, in the presence of GABA EC3–7, n = 3
T2 construct: expressed in transfected cells; host or cells: Xenopus laevis oocytes, cRNA injection
T2 sequence (P14867 28-456): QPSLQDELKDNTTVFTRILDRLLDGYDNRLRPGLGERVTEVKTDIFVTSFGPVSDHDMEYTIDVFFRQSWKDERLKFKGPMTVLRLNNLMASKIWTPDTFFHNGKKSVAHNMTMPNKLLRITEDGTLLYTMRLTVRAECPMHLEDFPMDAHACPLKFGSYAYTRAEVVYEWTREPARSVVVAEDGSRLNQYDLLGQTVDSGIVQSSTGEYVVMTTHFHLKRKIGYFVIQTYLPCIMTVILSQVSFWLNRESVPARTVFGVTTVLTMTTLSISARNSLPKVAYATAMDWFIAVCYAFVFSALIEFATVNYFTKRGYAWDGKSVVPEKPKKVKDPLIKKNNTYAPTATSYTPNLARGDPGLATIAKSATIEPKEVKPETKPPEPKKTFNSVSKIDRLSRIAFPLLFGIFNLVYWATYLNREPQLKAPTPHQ
T2 sequence (P47870 25-512 limits assumed): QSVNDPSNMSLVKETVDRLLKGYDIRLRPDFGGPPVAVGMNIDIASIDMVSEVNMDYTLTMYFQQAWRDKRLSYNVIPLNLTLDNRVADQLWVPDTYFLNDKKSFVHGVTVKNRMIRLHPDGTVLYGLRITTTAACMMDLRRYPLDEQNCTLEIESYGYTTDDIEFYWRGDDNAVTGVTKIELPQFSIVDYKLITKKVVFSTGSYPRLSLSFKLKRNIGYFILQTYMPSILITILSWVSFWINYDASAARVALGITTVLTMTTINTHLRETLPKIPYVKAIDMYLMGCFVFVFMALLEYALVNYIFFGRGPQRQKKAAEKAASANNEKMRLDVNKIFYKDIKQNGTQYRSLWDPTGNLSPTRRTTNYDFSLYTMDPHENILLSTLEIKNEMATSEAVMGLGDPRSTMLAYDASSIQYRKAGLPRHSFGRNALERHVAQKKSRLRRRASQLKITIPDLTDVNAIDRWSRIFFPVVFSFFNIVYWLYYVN
Protocol: as §1, with “Concentration–response curves were generated, and the data were fitted by nonlinear regression analysis using Origin Software (OriginLab Corporation, USA) and are given as the means ± SEM of at least three oocytes from ≥2 batches. Diazepam (Sigma) and flumazenil (Sigma-Aldrich) were used as positive controls at 2 μM.” left out

[4] = test system: GABAA receptors; design: method as in PMID 17585957; settings: Xenopus oocyte assay; cited from earlier work

Chain of GABAA receptor with the α1β2γ2 subunit composition (P18507 40-475, one chain of several): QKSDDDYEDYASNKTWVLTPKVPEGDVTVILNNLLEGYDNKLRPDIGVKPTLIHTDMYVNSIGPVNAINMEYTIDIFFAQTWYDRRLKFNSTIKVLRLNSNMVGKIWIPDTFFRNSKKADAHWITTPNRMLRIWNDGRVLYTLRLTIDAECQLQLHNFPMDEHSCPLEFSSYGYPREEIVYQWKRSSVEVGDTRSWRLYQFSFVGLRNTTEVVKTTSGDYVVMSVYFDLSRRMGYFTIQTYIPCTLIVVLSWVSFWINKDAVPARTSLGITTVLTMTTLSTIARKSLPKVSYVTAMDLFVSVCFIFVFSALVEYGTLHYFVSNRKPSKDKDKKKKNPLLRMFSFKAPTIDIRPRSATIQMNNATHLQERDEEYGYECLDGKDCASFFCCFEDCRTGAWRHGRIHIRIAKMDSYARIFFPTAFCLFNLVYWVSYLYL

Compound: C=C/C(C)=C/C[C@]1(C)[C@H](C)C[C@H](O)[C@@]2(C=O)C(C=O)=C[C@@H](OC(C)=O)C[C@@H]12 [Compound 1, (5S,8R,9R,10S)-2S-Acetoxy-6S-hydroxyclerod-3,12,14-trien-18,19-dial]
- % activation at single concentration ([1]; in the presence of 2 μM GABA): ~40%

Compound: C=C/C(C)=C/C[C@]1(C)[C@H](C)C[C@H](O)[C@]23C(=C[C@@H](OC(C)=O)C[C@@H]12)[C@@H](OC)O[C@H]3OC(C)=O [Compound 2, Graveospene H]
- % activation at single concentration ([1]; in the presence of 2 μM GABA): no discernible activity

Compound: C=C/C(C)=C/C[C@]1(C)[C@H](C)C[C@H](O)[C@]23C(=C[C@@H](OC(C)=O)C[C@@H]12)[C@@H](OC(C)=O)O[C@H]3OC(C)=O [Compound 3, Corymbotin D]
- % activation at single concentration ([1]; in the presence of 2 μM GABA): significantly enhanced

Compound: C=C/C(C)=C/C[C@]1(C)[C@H](C)C[C@H](O)[C@]23C(=C[C@H](OC(=O)C(=C)C)C[C@@H]12)[C@@H](OC(C)=O)O[C@H]3OC(C)=O [Compound 4, Corymbotin F]
- % activation at single concentration ([1]; in the presence of 2 μM GABA): no discernible activity

Compound: C=C/C(C)=C/C[C@]1(C)[C@H](C)C[C@H](OC)[C@@]2(C=O)C(C=O)=C[C@@H](OC(C)=O)C[C@@H]12 [Compound 5, (5S,8R,9R,10S)-2S-Acetoxy-6S-methoxyclerod-3,12,14-trien-18,19-dial]
- % activation at single concentration ([1]; in the presence of 2 μM GABA): ~40%

Compound: C=C/C(C)=C/C[C@]1(C)[C@H](C)C[C@H](O)[C@]23C(=C[C@H](OC(=O)C(=C)C)C[C@@H]12)[C@@H](OC)O[C@H]3OC(C)=O [Compound 6, (2R)-2-Methylpropenoyloxy-6S-hydroxy-18S-methoxy-19S-acetoxyzuelanin]
- % activation at single concentration ([1]; in the presence of 2 μM GABA): no discernible activity

Compound: C=C/C(C)=C/CC1(C)C(C)CC(OC(C)=O)C23C(=CC(OC(C)=O)CC12)C(OC(C)=O)OC3OC(C)=O [Compound 7, (2S,6S,18S,19S)-Tetraacetoxyzuelanin]
- % activation at single concentration ([1]; in the presence of 2 μM GABA): significantly enhanced
- EC50 ([1]; in the presence of 2 μM GABA, CHO cells α1β2γ2, read-out: EC50, positive allosteric modulation of the GABA signal): 4.6 µM

Compound: C=C/C(C)=C/C[C@]1(C)[C@H](C)C[C@H](OC)[C@]23C(=C[C@@H](OC(C)=O)C[C@@H]12)[C@@H](OC(C)=O)O[C@H]3OC(C)=O [Compound 8, Corimbotin A]
- % activation at single concentration ([1]; in the presence of 2 μM GABA): significantly enhanced
- activation by 8 in the presence of flumazenil ([1]; 8 (5 μM) with flumazenil 0.001–10 μM, 2 μM GABA): not abrogated
- combination with allopregnanolone ([1]; 8 (0.5–4.0 μM) with allopregnanolone (0.25 μM), 2 μM GABA): additive effects
- combination with diazepam ([1]; 8 (0.5–8 μM) with diazepam (2 μM), 2 μM GABA): additive effect
- potentiation of the GABA signal by etazolate in combination with 8 ([1]; etazolate (2 μM) with 8 (0.5–8 μM), 2 μM GABA): further increased
- IGABA stimulation by 8 in the presence of flumazenil ([2]; 8 (50 μM), flumazenil (2 μM)): not prevented
- EC50 ([2]; α1β2γ2S, in the presence of GABA EC3–7, n = 3, read-out: EC50, potentiation of GABA-induced chloride currents (IGABA)): 43.6 µM
- Emax ([2]; α1β2γ2S, in the presence of GABA EC3–7, n = 3, read-out: Emax, maximal IGABA enhancement): 809%
- EC50 ([3]; read-out: EC50, potentiation of GABA-induced chloride currents (IGABA)): 57.6 µM
- Emax ([3]; read-out: Emax, maximal IGABA enhancement): 534%

Compound: C=C/C(C)=C/C[C@]1(C)[C@H](C)C[C@H](OC)[C@]23C(=C[C@H](OC(=O)CC)C[C@@H]12)[C@@H](OC(C)=O)O[C@H]3OC(C)=O [Compound 9, (2R)-Propanoyloxy-(6R)-methoxy-18R,19S-diacetoxyzuelanin]
- % activation at single concentration ([1]; in the presence of 2 μM GABA): no discernible activity

Compound: CN1C(=O)CN=C(c2ccccc2)c2cc(Cl)ccc21 [diazepam]
- maximal potentiation (Emax) [4]: ~200%

Compound: CCO [ethanol, reference compound]
- activation of the GABA signal ([1]; concentrations up to 640 mM, in presence of 2 μM GABA): no activation

Compound: CCOC(=O)c1ncn2c1CN(C)C(=O)c1cc(F)ccc1-2 [flumazenil, reference compound]
- effect on potentiation of the GABA signal by diazepam ([1]; diazepam 2 μM, flumazenil 0.001–100 μM, concentration-dependent): abolished

Compound: pregnenolone sulfate [PREGS, reference compound]
- effect of PREGS on GABA signal with 8, highest concentration ([1]; 8 (10 μM) with PREGS 10 μM, 2 μM GABA): decrease of the GABA signal
- effect of PREGS on GABA signal with 8, lower concentrations ([1]; 8 (10 μM) with PREGS at lower concentrations (<10 μM), 2 μM GABA): no effect
- effect on activation by allopregnanolone ([1]; allopregnanolone 0.5 μM, PREGS 0.001–100 μM): abrogated
